# Tests used:
# Test in all cases: Bliss excess, mean over the matrix (fraction); higher = more synergy
# [1] = test system: ACHN (Kidney Carcinoma)
# Procedure, shortened: (§1)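 Cell lines in DMEM/F12 or RPMI with 10% FBS were plated in 1536-well plates, held 24 hours at 37°C, 5% CO2, then given two-drug dose matrices for 72 hours (DMSO typically 0.2%). Viability was read by CellTiter-Glo 2.0 luminescence and scaled as inhibition from 0 (vehicle wells) to 1 (blank wells). Combination Emax is the second-highest inhibition in the matrix; Bliss excess is observed combination effect minus expected EA + EB − EA·EB, EA and EB being single-agent effects.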
# [2] = test system: AMO-1 (Plasma Cell Myeloma)
# Procedure, shortened: as §1
# [3] = test system: D-263MG (Glioblastoma)
# Procedure, shortened: as §1
# [4] = test system: EFM-19 (Breast Carcinoma)
# Procedure, shortened: as §1
# [5] = test system: EW-24 (Ewing's Sarcoma)
# Procedure, shortened: as §1
# [6] = test system: EoL-1-cell (Acute Myeloid Leukemia)
# Procedure, shortened: as §1
# [7] = test system: KARPAS-299 (T-Cell Non-Hodgkin's Lymphoma)
# Procedure, shortened: as §1
# [8] = test system: KYSE-450 (Esophageal Squamous Cell Carcinoma)
# Procedure, shortened: as §1
# [9] = test system: LU-65 (Non-Small Cell Lung Carcinoma)
# Procedure, shortened: as §1
# [10] = test system: MIA-PaCa-2 (Pancreatic Carcinoma)
# Procedure, shortened: as §1
# [11] = test system: MLMA (Other Blood Carcinomas)
# Procedure, shortened: as §1
# [12] = test system: NB69 (Neuroblastoma)
# Procedure, shortened: as §1
# [13] = test system: NCI-H358 (Lung Adenocarcinoma)
# Procedure, shortened: as §1
# [14] = test system: NCI-H727 (Other Solid Carcinomas)
# Procedure, shortened: as §1
# [15] = test system: PANC-04-03 (Pancreatic Carcinoma)
# Procedure, shortened: as §1
# [16] = test system: RF-48 (B-Cell Non-Hodgkin's Lymphoma)
# Procedure, shortened: as §1
# [17] = test system: TGW (Neuroblastoma)
# Procedure, shortened: as §1
# [18] = test system: TK10 (Kidney Carcinoma)
# Procedure, shortened: as §1
# [19] = test system: UACC-62 (Melanoma)
# Procedure, shortened: as §1
# [20] = test system: YH-13 (Glioblastoma)
# Procedure, shortened: as §1
SMILES,Bliss excess [1],Bliss excess [2],Bliss excess [3],Bliss excess [4],Bliss excess [5],Bliss excess [6],Bliss excess [7],Bliss excess [8],Bliss excess [9],Bliss excess [10],Bliss excess [11],Bliss excess [12],Bliss excess [13],Bliss excess [14],Bliss excess [15],Bliss excess [16],Bliss excess [17],Bliss excess [18],Bliss excess [19],Bliss excess [20]
"CN(CCO)CC[C@H](CSc1ccccc1)Nc1ccc(S(=O)(=O)NC(=O)c2ccc(N3CCC([C@@H](O)c4ccccc4-c4ccc(Cl)cc4)CC3)cc2)cc1S(=O)(=O)C(F)(F)F [AZD4320] + CC(=O)O[C@H]1C(=O)[C@@]2(C)[C@H]([C@H](OC(=O)c3ccccc3)[C@]3(O)C[C@H](OC(=O)[C@H](O)[C@@H](NC(=O)c4ccccc4)c4ccccc4)C(C)=C1C3(C)C)[C@]1(OC(C)=O)CO[C@@H]1C[C@@H]2O [Paclitaxel] (first compound max 1 µM, 7x7, partner max 3 µM)",-0.0319,0.0173,0.102,0.0898,0.17,-0.0057,-0.079,0.0129,0.0224,0.0064,0.0254,0.0148,0.0117,0.101,-0.0033,-0.0029,-0.0472,0.0195,0.0953,0.0619
"C[C@@H](c1ccc2nccn2c1)n1nnc2ncc(-c3cnn(C)c3)nc21 [Savolitinib] + CC1(C)CCC(CN2CCN(c3ccc(C(=O)NS(=O)(=O)c4ccc(NCC5CCOCC5)c([N+](=O)[O-])c4)c(Oc4cnc5[nH]ccc5c4)c3)CC2)=C(c2ccc(Cl)cc2)C1 [Venetoclax] (first compound max 1 µM, 7x7, partner max 1 µM)",-0.0443,0.0036,-0.0797,-0.0273,-0.0739,0.0273,-0.0121,-0.0471,-0.0738,-0.0355,-0.022,-0.0378,-0.0564,-0.0536,-0.0736,-0.0502,-0.0486,-0.0568,-0.0111,0.0179
"COc1cc2c(cc1OCCCCCOc1cc3c(cc1OC)C(=O)N1C=C(C)C[C@H]1C=N3)N=C[C@@H]1CC(C)=CN1C2=O [SG3199] + O=C(c1cc(Cc2n[nH]c(=O)c3ccccc23)ccc1F)N1CCN(C(=O)C2CC2)CC1 [Olaparib] (first compound max 0.001 µM, 7x7, partner max 10 µM)",-0.0192,-0.0342,-0.018,-0.063,-0.0272,-0.0348,-0.0122,-0.041,0.0047,-0.0415,-0.0269,-0.0102,-0.0353,-0.0726,-0.046,0.0133,-0.0446,-0.0646,-0.0663,-0.0282
"N#Cc1cnc(Nc2cc(NC[C@H]3CNCCO3)c(C(F)(F)F)cn2)cn1 [SRA737] + Nc1ccn([C@@H]2O[C@H](CO)[C@@H](O)C2(F)F)c(=O)n1 [Gemcitabine] (first compound max 10 µM, 7x7, partner max 0.3 µM)",-0.0356,0.0377,0.0556,0.0489,-0.0984,0.0316,0.0707,0.114,0.0224,0.124,-0.0924,0.0366,-0.0054,-0.0046,-0.0036,0.0451,-0.0301,-0.0589,0.019,0.0032
"Cc1nc(Nc2ncc(C(=O)Nc3c(C)cccc3Cl)s2)cc(N2CCN(CCO)CC2)n1 [Dasatinib] + CC(=O)Nc1cccc(-n2c(=O)n(C3CC3)c(=O)c3c(Nc4ccc(I)cc4F)n(C)c(=O)c(C)c32)c1 [Trametinib] (first compound max 2 µM, 7x7, partner max 1 µM)",-0.0707,0.058,-0.031,-0.0957,-0.0569,-0.0157,0.0122,-0.0101,-0.112,0.156,-0.0324,0.0099,0.004,-0.0357,0.0163,-0.0369,-0.0621,0.0159,0.0064,-0.0698
"Cc1cc2ncnn2cc1Nc1ncc2c(n1)n(C1CCOCC1)c(=O)n2C [AZD7648] + C=CCn1c(=O)c2cnc(Nc3ccc(N4CCN(C)CC4)cc3)nc2n1-c1cccc(C(C)(C)O)n1 [AZD1775] (first compound max 10 µM, partner max 1 µM)",-0.0178,-0.0422,0.0037,-0.0596,-0.0294,0.0137,0.0072,-0.03,-0.0027,-0.0459,-0.0665,-0.0504,-0.0156,0.024,0.0135,0.0239,-0.0505,0.0668,0.0242,0.0076
"N#Cc1cnc(Nc2cc(NC[C@H]3CNCCO3)c(C(F)(F)F)cn2)cn1 [SRA737] + C=CCn1c(=O)c2cnc(Nc3ccc(N4CCN(C)CC4)cc3)nc2n1-c1cccc(C(C)(C)O)n1 [AZD1775] (first compound max 10 µM, partner max 1 µM)",-0.0285,0.0986,0.0096,-0.044,0.0488,-0.0097,0.0776,0.119,0.0233,0.139,-0.0114,0.163,-0.0155,0.0694,0.0182,-0.0171,-0.0382,0.0566,0.0048,0.0804
"CN(CCO)CC[C@H](CSc1ccccc1)Nc1ccc(S(=O)(=O)NC(=O)c2ccc(N3CCC([C@@H](O)c4ccccc4-c4ccc(Cl)cc4)CC3)cc2)cc1S(=O)(=O)C(F)(F)F [AZD4320] + C=CCn1c(=O)c2cnc(Nc3ccc(N4CCN(C)CC4)cc3)nc2n1-c1cccc(C(C)(C)O)n1 [AZD1775] (first compound max 1 µM, partner max 1 µM)",0.0342,0.0119,-0.0277,0.0433,0.119,-0.0146,0.0477,-0.0535,-0.0162,-0.0176,0.0379,0.0032,-0.0765,-0.0587,-0.048,0.0896,-0.008,0.0515,0.025,-0.0163
"Cc1cc2ncnn2cc1Nc1ncc2c(n1)n(C1CCOCC1)c(=O)n2C [AZD7648] + CN(C)CCCOc1ccc(-c2ccc3ncc4c(c3c2)n(C2CCOCC2)c(=O)n4C)cn1 [AZD0156] (first compound max 10 µM, 7x7, partner max 1 µM)",0.0104,0.0135,0.005,-0.0815,-0.0643,0.0279,0.0477,0.0038,0.0053,-0.003,-0.0187,-0.0382,0.0054,0.0162,0.0016,-0.0144,0.0804,0.013,0.0247,-0.0263
"COc1cc2ncnc(Nc3ccc(F)c(Cl)c3)c2cc1OCCCN1CCOCC1 [Gefitinib] + CC(C)n1c(=O)n(C)c2cnc3cc(F)c(-c4ccc(OCCCN5CCCCC5)nc4)cc3c21 [AZD1390] (first compound max 10 µM, 7x7, partner max 0.3 µM)",-0.0829,-0.0485,-0.0401,-0.0722,-0.0759,-0.0385,-0.0218,-0.0177,-0.0614,-0.0307,-0.0358,-0.0615,-0.0493,-0.108,-0.0853,-0.0283,-0.0438,-0.0646,-0.0358,-0.0848
"N#Cc1cnc(Nc2cc(NC[C@H]3CNCCO3)c(C(F)(F)F)cn2)cn1 [SRA737] + CCc1c2c(nc3ccc(O)cc13)-c1cc3c(c(=O)n1C2)COC(=O)[C@]3(O)CC [SN-38] (first compound max 10 µM, 7x7, partner max 0.3 µM)",-0.0867,-0.0225,0.0777,0.107,-0.0859,-0.0375,0.0148,0.157,-0.0191,0.0599,-0.061,-0.0351,0.0057,0.0316,-0.0583,-0.0047,0.0191,0.0241,0.0364,0.0231

# From the supplement of paper PMC11061612
